Assay results from US20260373233A1, “ISLET AMYLOID POLYPEPTIDE ISOFORMS AND PEPTIDES AND METHODS OF USE” (The United States of America, as represented by the …, priority 2022, published 2026).
Peptide text beside a SMILES is read from it.

Legend:
[1] = ThT amyloid reporter binding assay of peptide alone
Method: (§1) Thioflavin T in vitro assay for IAPP and Ab amyloid formation: Thioflavin T (ThT) was from Millipore-Sigma (Cat #T3516, Rockville, MD). […] Black 96 well microplates (Chimney Well) were from Greiner Bio-One (Frickenhausen, Germany). C-terminal amidated IAPP25 and DNSP11 peptides were synthesized by GeneMed Synthesis Inc (San Antonio, TX). […] The final concentration […] 1% DMSO and 25 μM ThT in Component A buffer (AnaSpec Manual of SensoLyte Thioflavin T Aggregation Kit, Cat #AS-72214).
(§2) FIG. 10A is a representative experiment of three replicates showing IAPP37 aggregation dynamics with lag time of 90 min and inhibition by IAPP25 (derived from IAPP-γ) and DNSP11. […] ThT binding fluorescent intensity (F.I.) was transformed to area under curve (AUC) using the trapezoidal rule and the inhibitions were analyzed by one-way ANOVA with Tukey's multi-test correction.

[2] = target: T1, IAPP37 (Homo sapiens, UniProt P10997); assay: Thioflavin T (ThT) IAPP37 fibrillation assay; format: biochemical; conditions: 37 °C; for IAPP aggregation dynamics (AUC of ThT fluorescence) with inhibitor, % of IAPP37 aggregation: linear range of 90-160 min, 50 μM IAPP37 with 50 μM inhibitory peptide, p=0.003
T1 construct: ThT fibrillation assay
T1 sequence (P10997 34-70): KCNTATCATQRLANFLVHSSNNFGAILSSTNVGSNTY
Method: as §1
Statistical data analysis: GraphPad Prism v9 software was used for statistical analysis of RT-qPCR and SRM data and MetaboAnalyst v5.0 (metaboanalyst.ca/) was used for partial least squares-discriminant analysis (PLS-DA). P<0.05 was considered significant and data were represented as means±SEM. The normalized expression values of IAPP isoforms in TaqMan fold changes and ddPCR IAPP/GAPDH droplets, ELISA, and SRM quantitative values were analyzed with unpaired student t-test, Pearson correlation coefficient matrix. All statistical procedures for SRM biomarker discovery were carried out by using GraphPad Prism v9 software and MetaboAnalyst 5.0. Biomarker accuracies were calculated by area under the receiver operating characteristic curve (AUROC). For ThT amyloid dye assay, area under a curve (AUC) was calculated using the trapezoidal rule and the data were analyzed using one-way ANOVA with Tukey's multiple comparison correction. The ratio of means (±SEM) was calculated by propagation of error formula.
as §2

[3] = target: T2, Aβ42 (Homo sapiens, UniProt P05067); assay: Thioflavin T (ThT) Aβ42 fibrillation assay; format: biochemical; conditions: linear range of 70-120 min; 50 μM Aβ42 with 50 μM inhibitory peptide; 37 °C; p<0.0001
T2 construct: ThT fibrillation assay
Method: Thioflavin T in vitro assay for IAPP and Ab amyloid formation: Thioflavin T (ThT) was from Millipore-Sigma (Cat #T3516, Rockville, MD). […] Black 96 well microplates (Chimney Well) were from Greiner Bio-One (Frickenhausen, Germany). […] The final concentration the monomeric peptides was 1% DMSO and 25 μM ThT in Component A buffer (AnaSpec Manual of SensoLyte Thioflavin T Aggregation Kit, Cat #AS-72214).
P<0.05 was considered significant and data were represented as means±SEM. […] For ThT amyloid dye assay, area under a curve (AUC) was calculated using the trapezoidal rule and the data were analyzed using one-way ANOVA with Tukey's multiple comparison correction. The ratio of means (±SEM) was calculated by propagation of error formula.

[4] = tested on: dopaminergic neurons; conditions: animal models of Parkinson's disease; amidated DNSP11; cited from earlier work

T2 sequence (P05067 672-713): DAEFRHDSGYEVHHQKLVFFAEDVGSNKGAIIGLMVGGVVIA

binding to ThT amyloid reporter [1] | IAPP aggregation dynamics (AUC of ThT fluorescence) with inhibitor, % of IAPP37 aggregation [2] [%] | Aβ aggregation dynamics (AUC of ThT fluorescence) with inhibitor, % of Aβ42 aggregation [3] [%] | lag time of IAPP37 aggregation ([2]; IAPP37, representative experiment of three replicates) [min] | Molecule | protection of dopaminergic neurons [4]
did not bind | 25.0 | 50.6 |  | CC[C@H](C)[C@H](NC(=O)[C@H](CCC(N)=O)NC(=O)[C@H](Cc1c[nH]c2ccccc12)NC(=O)[C@H](C)NC(=O)[C@H](CO)NC(=O)[C@H](CCCNC(=N)N)NC(=O)[C@H](CCC(N)=O)NC(=O)[C@@H](NC(=O)[C@H](Cc1c[nH]cn1)NC(=O)[C@@H]1CCCN1C(=O)[C@H](CC(C)C)NC(=O)[C@@H](NC(=O)[C@H](C)NC(=O)[C@H](CC(N)=O)NC(=O)CNC(=O)[C@H](CO)NC(=O)[C@H](CCCCN)NC(=O)[C@H](Cc1c[nH]c2ccccc12)NC(=O)[C@H](CCCNC(=N)N)NC(=O)[C@@H](NC(=O)[C@@H](NC(=O)[C@H](CCCCN)NC(=O)[C@H](CO)NC(=O)[C@@H](N)CCCCN)C(C)C)[C@@H](C)CC)[C@@H](C)O)C(C)C)C(=O)N[C@@H](Cc1ccccc1)C(N)=O [IAPP25] (H-KSKVIRWKSGNATLPHVQRSAWQIF-NH2) | 
did not bind | 24.1 | 62.9 |  | CC(C)C[C@H](NC(=O)[C@H](CO)NC(=O)[C@H](CCCNC(=N)N)NC(=O)[C@H](CC(=O)O)NC(=O)[C@H](CCC(=O)O)NC(=O)[C@H](C)NC(=O)[C@@H]1CCCN1C(=O)[C@H](C)NC(=O)[C@H](CCC(=O)O)NC(=O)[C@@H]1CCCN1C(=O)[C@@H]1CCCN1)C(N)=O [DNSP11] (H-PPEAPAEDRSL-NH2) | protective to dopaminergic neurons
 |  |  | 90 | KCNTATCATQRLANFLVHSSNNFGAILSSTNVGSNTY [IAPP37, mature human IAPP, 37-AA peptide (AnaSpec Cat #AS-60254-1), reference compound] | 
